The values that follow come from patent publication US20050169984A1, “Pharmaceutical hard capsule containing inorganic substance” (DAIICHI SUNTORY PHARMA CO., LTD., priority 2004, published 2005).

The conditions of series [1]: background statement; cited from earlier work.
Series [2] in a line: Generation of Compound 2 on sealed non-contact storage of faropenem daloxate with hard gelatin capsule (HPLC peak area ratio). Format: physicochemical. From the text:
(drifting moisture) for 7 days, and observed for the change. 1, generation quantity of Compound 2 has increased and hard gelatin capsule has insolubilized after 3 days of preservation. From the result, it is confirmed that insolubilization of hard gelatin capsule is caused by low molecular, gaseous aldehyde-like substance generated from degradation of faropenem daloxate.
FIG. 2 is showing the testing condition of observation for change while faropenem daloxate is kept with hard gelatin capsule without any contact with the capsule in sealed glass container at 60° C. (drifting moisture) for 7 days.

As to `Cc1oc(=O)oc1COC(=O)C1=C([C@H]2CCCO2)S[C@@H]2[C@@H]([C@@H](C)O)C(=O)N12` [faropenem daloxate, (5-methyl-2-oxo-1,3-dioxolene-4-yl)methyl (5R,6S)-6-[(R)-1-hydroxyethyl]-7-oxo-3-[(R)-2-tetrahydrofuryl]-4-thia-1-azabicyclo[3.2.0]hept-2-ene-2-carboxylate], the oral absorbability in series [1] was at least 70%. Further, the “Generation quantity of Compound 2 (%)” value in series [2] (60° C./drifting humidity/3 days) is 0.02%; in series [2] (60° C./drifting humidity/5 days), 0.04%; in series [2] (60° C./drifting humidity/7 days), 0.07%.
